This is an account of results in US9314509B2, “Pharmaceutical compositions of melanocortin receptor ligands” (Ipsen Pharma S.A.S., priority 2009, dated 2016).

Where a name gives a salt, the structure may show the parent alone. Read-outs that look alike come from different tables or passages of the source.

This data set is described as follows: Solubility of pamoate salt, HPLC determination of concentration in supernatant. The format is physicochemical. On the procedure:
The solubility of pamoate salt of Example 1 was determined by mixing the peptide in water or PBS, followed by HPLC determination of the concentration in the supernatant, and the results are shown in Table 4B.

`CC(=O)N[C@@H](CCCNC(=N)N)C(=O)N[C@H]1CSSC[C@@H](C(N)=O)NC(=O)[C@H](Cc2c[nH]c3ccccc23)NC(=O)[C@H](CCCNC(=N)N)NC(=O)[C@@H](Cc2ccccc2)NC(=O)[C@H](Cc2c[nH]cn2)NC(=O)[C@@H](C)NC1=O` [Pamoate salt of Example 1 with Zn]: the solubility reads like this: (PBS, pH 7.4, read-out: Solubility in PBS, pH 7.4) 120 µg/mL; (Water, pH 7.0, read-out: Solubility in Water, pH 7.0) 50 µg/mL.

In general, solubility refers to the dissolved amount per volume that the medium holds.
